In patent US20180243325A1, “METHOD FOR INHIBITING ABSORPTION OF AND/OR PROMOTING EXCRETION OF LIPIDS USING D-PSICOSE” (CJ CHEILJEDANG CORPORATION, priority 2015, published 2018):

Assays:
Type in all cases: in vivo, C57BL/6J mice
[1] = system: high-fat diet-induced obese mice; test: Body weight, organ weight and adipose tissue weight of high-fat diet-induced obese mice; settings: for Adipose times weight: Epididymal fat / Adipose times weight: Interscapular BAT / Adipose times weight: Interscapular WAT / Adipose times weight: Mesentery fat / Adipose times weight: Perinephric fat / Adipose times weight: Retroperitoneum fat / Adipose times weight: Subcutaneous fat / Adipose times weight: Total WAT / Adipose times weight: Visceral fat / BWG (weight gain) / FER (food efficiency ratio = Weight gain/diet intake) / FinalBodyweight / Organ weights: Kidney / Organ weights: Liver / Organ weights: Muscle: HFD+5% w/w in diet, 16 weeks
Method: First, 4-week-old male C57BL/6J mice (60 total) were purchased from Jackson Laboratory. The animals were acclimated to the vivarium in a thermo-hygrostat (20-23° C., 45-65%) under a 12 h light/dark cycle and fed a pelletized commercial non-purified diet for 1 week after arrival. The mice were then randomly divided into 6 groups (n=10) and fed the respective experimental diets for 16 weeks: normal diet group (ND, American Institute of Nutrition (AIN)-76 semi-synthetic diet), high-fat diet group (HFD, 20% fat+1% cholesterol based on AIN-76 diet), PSI group (HFD+5% D-psicose, w/w, Sigma Chemical Company), ERY group (HFD+5% erythritol, w/w, Sigma Chemical Company), GLU group (HFD+5% D-glucose, w/w, Sigma Chemical Company), and FRU group (HFD+5% D-fructose, w/w, Sigma Chemical Company). All high-fat diet-fed groups were allowed to ingest the same calories by pair feeding based on the PSI group. The mice had ad libitum access to distilled water during the experimental period. Their feed intakes and body weights were measured daily and biweekly, respectively. The organ weights and the adipose tissue weights of the mice were measured after sacrificing the animals.

[2] = system: ABCG8 (ATP-binding cassette sub-family G member8, 67470); test: Small intestine mRNA expression, real-time quantitative PCR: ABCG8; settings: high-fat diet-fed obese mice
Method: (§1) First, 4-week-old male C57BL/6J mice (60 total) were purchased from Jackson Laboratory. The animals were acclimated to the vivarium in a thermo-hygrostat (20-23° C., 45-65%) under a 12 h light/dark cycle and fed a pelletized commercial non-purified diet for 1 week after arrival. […] Their feed intakes and body weights were measured daily and biweekly, respectively. The organ weights and the adipose tissue weights of the mice were measured after sacrificing the animals.
(§2) Samples were prepared and analyzed as previously described. Specifically, total RNA was synthesized into cDNA using a QuantiTect Reverse Transcription kit (QIAGEN Gmb1h, Hilden, Germany). RNA expression was quantified with real-time quantitative PCR using a QuantiTect SYBR Green PCR kit (QIAGEN Gmb1h, Hilden, Germany). […] Fluorescence signals were monitored every cycle and the resulting threshold cycles (Ct) were analyzed. mRNA expression in each experimental group was quantified using a CFX96 Real time system (Bio-rad, USA).

[3] = system: ABCG5 (ATP-binding cassette sub-family G member5, 27409); test: Small intestine mRNA expression, real-time quantitative PCR: ABCG5; settings: high-fat diet-fed obese mice
Method: as §1, §2

SMILES	Adipose times weight: Epididymal fat [1] [g/100 g Body weight]	Adipose times weight: Interscapular BAT [1] [g/100 g Body weight]	Adipose times weight: Interscapular WAT [1] [g/100 g Body weight]	Adipose times weight: Mesentery fat [1] [g/100 g Body weight]	Adipose times weight: Perinephric fat [1] [g/100 g Body weight]	Adipose times weight: Retroperitoneum fat [1] [g/100 g Body weight]	Adipose times weight: Subcutaneous fat [1] [g/100 g Body weight]	Adipose times weight: Total WAT [1] [g/100 g Body weight]	Adipose times weight: Visceral fat [1] [g/100 g Body weight]	BWG (weight gain) [1] [g/16 weeks]	FER (food efficiency ratio = Weight gain/diet intake) [1]	FinalBodyweight [1] [g]	Organ weights: Kidney [1] [g/100 g Bodyweight]	Organ weights: Liver [1] [g/100 g Bodyweight]	Organ weights: Muscle [1] [g/100 g Bodyweight]	mRNA expression of ABCG8 (gene involved in lipid excretion) [2]	mRNA expression of ABCGS (gene involved in lipid excretion) [3]	increases in the body weight over time ([1]; FIG. 1, HFD+5% w/w in diet, measured biweekly over 16 weeks)	Organ weights: Liver ([1]; listed as D-psicose)
O=C(CO)[C@@H](O)[C@H](O)[C@H](O)CO [FRU, D-fructose]	8.50	0.73	4.43	2.93	1.17	2.19	3.78	22.65	18.22	1.39	0.065	41.26	0.84	5.68	0.83	–	–	–	–
O=C[C@H](O)[C@@H](O)[C@H](O)[C@H](O)CO [GLU, D-glucose]	8.42	0.71	4.54	2.62	1.15	2.01	5.47	24.21	19.67	1.39	0.065	41.77	0.74	5.22	0.82	–	–	–	–
OC[C@@H](O)[C@@H](O)CO [ERY, erythritol]	7.92	0.57	4.56	2.43	0.92	2.21	4.88	22.93	18.36	1.32	0.059	40.22	0.77	5.37	0.77	–	–	–	–
O=C(CO)[C@H](O)[C@H](O)[C@H](O)CO [PSI, D-psicose]	–	–	–	–	–	–	–	–	–	0.70	–	–	–	4.35	–	reduces mRNA expression	reduces mRNA expression	considerably inhibited from 4 weeks after diet feeding	to levels similar to those of the ND group
